Experimental data reported in patent publication US10899754B2, “Modulators of indoleamine 2,3-dioxygenase” (GLAXOSMITHKLINE INTELLECTUAL PROPERTY DEVELOPMENT LIMITED, priority 2016, dated 2021).

What was measured:
Format in all cases: cell-based
[1] = tested on: human epithelial HeLa cells; experiment: HeLa cytotoxicity assay (CellTiter-Glo); conditions: pCC50
Method in brief: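 Read-out is CellTiter-Glo luminescence after 2 days at 37 °C, on IFN-γ-stimulated (10 nM) HeLa cells seeded at 5,000/well with compounds in 11-point 3-fold dose series. pCC50 from four-parameter curve fit; wells without cells set 100% cytotoxicity, stimulated cells with DMSO set 0%.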

[2] = tested on: human peripheral blood mononuclear cells (PBMC); experiment: PBMC cytotoxicity assay (CellTiter-Glo); conditions: 2 days, pCC50
Method in brief: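 % cytotoxicity was taken from CellTiter-Glo luminescence, using wells without cells and stimulated DMSO wells as references, and fitted by four-parameter curve to give XC50. Cells were human PBMC at 50,000 per well, activated with 100 ng/ml IFN-γ plus 50 ng/ml LPS. Incubation with 11-point, 3-fold dilution series ran for 2 days at 37 °C.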

[3] = target: T1, indoleamine 2, 3-dioxygenase (IDO1) (Homo sapiens, UniProt P14902); experiment: IDO1 HeLa RapidFire MS assay (kynurenine detection by mass spectrometry); design: to induce the expression of indoleamine 2, 3-dioxygenase (IDO1); conditions: HeLa cells, pIC50, read-out: IDO1_HELA_PXC50 (converted)
T1 sequence (P14902 whole entry): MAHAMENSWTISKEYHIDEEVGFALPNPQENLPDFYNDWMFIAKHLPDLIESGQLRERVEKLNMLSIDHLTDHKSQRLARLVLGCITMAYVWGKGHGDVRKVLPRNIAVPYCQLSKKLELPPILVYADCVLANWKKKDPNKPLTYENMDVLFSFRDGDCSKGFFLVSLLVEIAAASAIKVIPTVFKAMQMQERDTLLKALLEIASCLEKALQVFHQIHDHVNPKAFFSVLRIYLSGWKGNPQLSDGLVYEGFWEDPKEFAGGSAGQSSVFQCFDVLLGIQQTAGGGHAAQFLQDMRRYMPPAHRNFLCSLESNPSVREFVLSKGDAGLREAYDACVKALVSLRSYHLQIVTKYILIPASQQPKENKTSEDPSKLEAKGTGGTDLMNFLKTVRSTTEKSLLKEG
Method in brief: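 Compound potency reported as pIC50 from kynurenine/internal-standard ratio (RapidFire MS) in supernatant of IFN-γ-induced (10 nM) HeLa cells, 5,000 per well, after 2 days' treatment with 11-point dilutions. Cytotoxicity in the same format by luminescent ATP detection, reported as pCC50.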

[4] = target: T1, indoleamine 2, 3-dioxygenase (IDO1); experiment: IDO1 PBMC RapidFire MS assay (kynurenine detection by mass spectrometry); design: to induce the expression of indoleamine 2, 3-dioxygenase (IDO1); host or cells: human PBMC stimulated with IFN-gamma and LPS; conditions: human PBMC stimulated with IFN-γ and LPS, 2 days, pIC50, read-out: PBMC PXC50 (converted)
Method in brief: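 Kynurenine output, read by RapidFire mass spectrometry as ratio to an internal standard, was measured after 2-day compound exposure (11-point, 3-fold dilutions) of human PBMCs induced with 100 ng/ml IFN-γ and 50 ng/ml LPS. Cell viability tracked alongside via ATP luminescence; XC50 from curve fitting.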

CC(C)CN(c1ccc(-c2ccccc2C(=O)O)cc1Nc1nc2ccccc2o1)C1CCOCC1 [example 291, 3′-[(1,3-benzoxazol-2-yl)amino]-4′-[(2-methylpropyl)(oxan-4-yl)amino]-[1,1′-biphenyl]-2-carboxylic acid]
HELA_IDO1_TOX_PXC50 [1]: <5
PBMC TOX PXC50 [2]: <5
IC50 [3]: 100 nM
IC50 [4]: 126 nM

CC(C)CN(c1ccc(C(C)(C)CC(=O)O)cc1Nc1nc(C(F)(F)F)ns1)C1CCOCC1 [Example 1, 3-(4-(isobutyl(tetrahydro-2H-pyran-4-yl)amino)-3-((3-(trifluoromethyl)-1,2,4-thiadiazol-5-yl)amino)phenyl)-3-methylbutanoic Acid]
HELA_IDO1_TOX_PXC50 [1]: <5
PBMC TOX PXC50 [2]: <5
IC50 [3]: 3.98 nM
IC50 [4]: 0.794 nM

CC(C)CN(c1ccc(-c2cccnc2C(=O)O)cc1Nc1nc(C(F)(F)F)ns1)C1CCCCC1 [Example 88, 3-(4-(cyclohexyl(isobutyl)amino)-3-((3-(trifluoromethyl)-1,2,4-thiadiazol-5-yl)amino)phenyl)picolinic Acid]
HELA_IDO1_TOX_PXC50 [1]: <5
PBMC TOX PXC50 [2]: <5
IC50 [3]: 5.01 nM
IC50 [4]: 3.98 nM

CC(C)CN(c1ccc(C(C)CC(=O)O)cc1NC1=N[C@H](C)CO1)C1CCCCC1 (stereo partly drawn) [example 151, 3-{4-[cyclohexyl(2-methylpropyl)amino]-3-{[(4R)-4-methyl-4,5-dihydro-1,3-oxazol-2-yl]amino}phenyl}butanoic acid]
HELA_IDO1_TOX_PXC50 [1]: <5
PBMC TOX PXC50 [2]: <5
IC50 [3]: 2000 nM
IC50 [4]: 2510 nM

CC(C)CN(c1ccc(C(C)CC(=O)O)cc1NC1=N[C@@H](C)CO1)C1CCCCC1 (stereo partly drawn) [example 152, 3-{4-[cyclohexyl(2-methylpropyl)amino]-3-{[(4S)-4-methyl-4,5-dihydro-1,3-oxazol-2-yl]amino}phenyl}butanoic acid]
HELA_IDO1_TOX_PXC50 [1]: 5.4
PBMC TOX PXC50 [2]: <5
IC50 [3]: 3160 nM
IC50 [4]: 3160 nM

CO[C@H]1CC[C@@H](N(CC(C)C)c2ccc(-c3ccccc3C(=O)O)cc2Nc2nc(C(F)(F)F)ns2)CC1 [example 276, 4′-[(2-methylpropyl)[(1s,4s)-4-methoxycyclohexyl]ami-no]-3′-{[3-(trifluoromethyl)-1,2,4-thiadiazol-5-yl]amino}-[1,1′-biphenyl]-2-carboxylic acid]
HELA_IDO1_TOX_PXC50 [1]: <5
PBMC TOX PXC50 [2]: <5
IC50 [3]: 3.98 nM
IC50 [4]: > 10000 nM

CC(C)CN(c1ccc([C@H](C)CC(=O)O)cc1Nc1cnc(Cl)cn1)[C@H]1CC[C@H](O)CC1 [Example 45, (R)-3-(3-((5-chloropyrazin-2-yl)amino)-4-(((1r,4R)-4-hydroxycyclohexyl) (isobutyl)amino)phenyl)butanoic Acid]
HELA_IDO1_TOX_PXC50 [1]: <5
PBMC TOX PXC50 [2]: <5
IC50 [3]: 3.98 nM
IC50 [4]: 1.26 nM

CC(C)CN(c1ccc([C@H](C)CC(=O)O)cc1Nc1ccc(Cl)cn1)C1CCCCC1 [Example 75, (R)-3-(3-((5-chloropyridin-2-yl)amino)-4-(cyclohexyl(isobutyl)amino)phenyl)butanoic Acid]
HELA_IDO1_TOX_PXC50 [1]: <5
PBMC TOX PXC50 [2]: <5
IC50 [3]: 3.16 nM
IC50 [4]: 1.58 nM

COCC(=O)N1CCC(N(CC(C)C)c2ccc([C@H](C)CC(=O)O)cc2Nc2nc(C(F)(F)F)ns2)CC1 [Example 72, (R)-3-(4-(isobutyl(1-(2-methoxyacetyl)piperidin-4-yl)amino)-3-((3-(trifluoromethyl)-1,2,4-thiadiazol-5-yl)amino)phenyl)butanoic Acid]
HELA_IDO1_TOX_PXC50 [1]: <5
PBMC TOX PXC50 [2]: <5
IC50 [3]: 39.8 nM
IC50 [4]: 10 nM

CC(C)CN(c1ccc(C(C)OCC(=O)O)cc1Nc1nc2ccccc2o1)C1CCCCC1 (stereo not shown) [example 170, 2-(1-{3-[(1,3-benzoxazol-2-yl)amino]-4-[cyclohexyl(2-methylpropyl)amino]phenyl}ethoxy)acetic acid]
HELA_IDO1_TOX_PXC50 [1]: <5
PBMC TOX PXC50 [2]: <5
IC50 [3]: 501 nM
IC50 [4]: 316 nM

CC(C)CN(c1ccc([C@H](C)CC(=O)O)cc1Nc1nc(C(F)(F)F)ns1)[C@H]1CC[C@@H](O)CC1 [Example 59, (R)-3-(4-(((1s,4S)-4-hydroxycyclohexyl) (isobutyl)amino)-3-((3-(trifluoromethyl)-1,2,4-thiadiazol-5-yl)amino)phenyl)butanoic Acid]
HELA_IDO1_TOX_PXC50 [1]: <5
PBMC TOX PXC50 [2]: <5
IC50 [3]: 10 nM
IC50 [4]: 6.31 nM

CC(C)CN(c1ccc(C(C)CC(=O)O)cc1NCc1ccccn1)C1CCCCC1 (stereo not shown) [example 161, 3-{4-[cyclohexyl(2-methylpropyl)amino]-3-{[(pyridin-2-yl)methyl]amino}phenyl} butanoic acid]
HELA_IDO1_TOX_PXC50 [1]: <5
PBMC TOX PXC50 [2]: <5
IC50 [3]: 2510 nM
IC50 [4]: 2000 nM

CC(C)CN(c1ccc(C(C)(C)CC(=O)O)cc1Nc1ccc(Cl)cn1)C1CCOCC1 [Example 4, 3-(3-((5-chloropyridin-2-yl)amino)-4-(isobutyl(tetrahydro-2H-pyran-4-yl)amino)phenyl)-3-methylbutanoic Acid]
HELA_IDO1_TOX_PXC50 [1]: <5
PBMC TOX PXC50 [2]: <5
IC50 [3]: 6.31 nM
IC50 [4]: 3.98 nM

CC(C)CN(c1ccc(-c2cnccc2C(=O)O)cc1Nc1nc2ccccc2o1)C1CCCCC1 [example 289, 3-{3-[(1,3-benzoxazol-2-yl)amino]-4-[cyclohexyl(2-methylpropyl)amino]phenyl}pyridine-4-carboxylic acid]
HELA_IDO1_TOX_PXC50 [1]: <5
PBMC TOX PXC50 [2]: <5
IC50 [3]: 1260 nM
IC50 [4]: 501 nM

CC(C)CN(c1ccc([C@H](C)CC(=O)O)cc1Nc1cnc(C(F)(F)F)nc1)C1CCOCC1 [Example 9, (R)-3-(4-(isobutyl(tetrahydro-2H-pyran-4-yl)amino)-3-((2-(trifluoromethyl)pyrimidin-5-yl)amino)phenyl)butanoic Acid]
HELA_IDO1_TOX_PXC50 [1]: <5
PBMC TOX PXC50 [2]: <5
IC50 [3]: 2.51 nM
IC50 [4]: 1 nM

Cc1nsc(Nc2cc(-c3ccccc3C(=O)O)ccc2N(CC(C)C)CC(C)C)n1 [example 286, 4′-[bis(2-methylpropyl)amino]-3′-[(3-methyl-1,2,4-thiadiazol-5-yl)amino]-[1,1′-biphenyl]-2-carboxylic acid]
HELA_IDO1_TOX_PXC50 [1]: <5
PBMC TOX PXC50 [2]: <5
IC50 [3]: 501 nM
IC50 [4]: 200 nM

CC(C)CN(c1ccc(-c2ccccc2C(=O)O)cc1Nc1nc(C(F)(F)F)ns1)C1CCOCC1 [Example 103, 4′-(isobutyl(tetrahydro-2H-pyran-4-yl)amino)-3′-((3-(trifluoromethyl)-1,2,4-thiadiazol-5-yl)amino)-[1,1′-biphenyl]-2-carboxylic Acid]
HELA_IDO1_TOX_PXC50 [1]: <5
PBMC TOX PXC50 [2]: <5
IC50 [3]: 3.16 nM
IC50 [4]: 1.58 nM

CC(C)CN(CC(C)C)c1ccc(C(C)CC(=O)O)cc1NC1CCCCC1 (stereo not shown) [example 157, 3-{4-[bis(2-methylpropyl)amino]-3-(cyclohexylamino)phe-nyl}butanoic acid]
HELA_IDO1_TOX_PXC50 [1]: <5
PBMC TOX PXC50 [2]: <5
IC50 [3]: 1000 nM
IC50 [4]: 794 nM

COCCc1nnc(Nc2cc([C@H](C)CC(=O)O)ccc2N(CC(C)C)C2CCCCC2)[nH]1 [example 214, (3R)-3-{4-[cyclohexyl(2-methylpropyl)amino]-3-{[5-(2-methoxyethyl)-4H-1,2,4-triazol-3-yl]amino}phenyl}butanoic acid]
HELA_IDO1_TOX_PXC50 [1]: <5
PBMC TOX PXC50 [2]: <5
IC50 [3]: 12.6 nM
IC50 [4]: 12.6 nM

CC(C)CN(c1ccc([C@H](C)CC(=O)O)cc1Nc1cccc(C(F)(F)F)n1)C1CCCCC1 [example 172, (3R)-3-{4-[cyclohexyl(2-methylpropyl)amino]-3-{[6-(trifluoromethyl)pyridin-2-yl]amino}phenyl}butanoic acid]
HELA_IDO1_TOX_PXC50 [1]: <5
PBMC TOX PXC50 [2]: <5
IC50 [3]: 79.4 nM
IC50 [4]: 39.8 nM

CC(C)CN(c1ccc(-c2ccccc2C(=O)O)cc1Nc1nc(C(N)=O)ns1)C1CCCCC1 [Example 91, 3′-((3-carbamoyl-1,2,4-thiadiazol-5-yl)amino)-4′-(cyclohexyl(isobutyl)amino)-[1,1′-biphenyl]-2-carboxylic acid]
HELA_IDO1_TOX_PXC50 [1]: <5
PBMC TOX PXC50 [2]: <5
IC50 [3]: 20 nM
IC50 [4]: 10 nM

COCc1nnc(Nc2cc([C@H](C)CC(=O)O)ccc2N(CC(C)C)C2CCCCC2)[nH]1 [Example 82, (R)-3-(4-(cyclohexyl(isobutyl)amino)-3-((5-(methoxymethyl)-4H-1,2,4-triazol-3-yl)amino)phenyl)butanoic Acid]
HELA_IDO1_TOX_PXC50 [1]: <5
PBMC TOX PXC50 [2]: <5
IC50 [3]: 15.8 nM
IC50 [4]: 7.94 nM
